Reference: patent US8299074B2, “P38 MAP kinase inhibitors” (RespiVert Ltd., priority 2008, dated 2012)

Legend:
U937 cells [1] = assay: LPS-induced IL-8 release in U937 cells; assay type: cell-based; conditions: Homo sapiens; Table 2; read-out: DU937 (LPS) IL-8 IC50
Description: (§1) LPS-Induced TNF Alpha/IL-8 Release in U937 Cells: Potency U937 cells, human monocytic cell line, were differentiated to macrophage-type cells by incubation with phorbol myristate acetate (PMA; 100 ng/ml) for 48 to 72 hours. Cells were pre-incubated with final concentrations of compound for 2 hrs. […] Coli: O111:B4, Sigma) for 4 hrs, and the supernatant collected for determination of TNFα and IL-8 concentration by sandwich ELISA (Duo-set, R&D systems). […] The inhibition of IL-8 production was calculated at each concentration of test compound by comparison with vehicle control.

BEAS2B cells = assay: Poly I:C-induced ICAM-1 induction in BEAS2B cells; assay type: cell-based; conditions: Homo sapiens, BEAS-2B; Table 2; read-out: BEAS2B (polyIC) ICAM1 IC50
Description: Poly I:C-Induced ICAM-1 Induction in BEAS2B Cells: Potency Poly I:C (1 ug/ml) (Invivogen Ltd., San Diego, Calif.) was transfected into BEAS2B cells (human bronchial epithelial cells, ATCC) with Oligofectamine (Invitrogen, Carlsbad, Calif.). Cells were pre-incubated with final concentrations of compound for 2 hrs. The level of ICAM1 expression on the cell surface was determined by cell-based ELISA. Briefly, at 18 hrs after poly I:C transfection, cells were fixed with 4% formaldehyde in PBS. After quenching endogenous peroxidase by adding 0.1% sodium azide and 1% hydrogen peroxide, cells were washed with wash-buffer (0.1% Tween in PBS: PBS-Tween). After blocking the wells with 5% milk in PBS-Tween for 1 hr, the cells were incubated with anti-human ICAM-1 antibody (Cell Signaling Technology, Danvers, Mass.) in 1% BSA PBS overnight at 4° C. Cells were washed with PBS-Tween and incubated with the secondary antibody (HRP-conjugated anti-rabbit IgG, Dako Ltd., Glostrup, Denmark). The ICAM-1 signal was detected by adding substrate and reading at 450 nm with a reference wavelength of 655 nm using a spectrophotometer. […] The measured OD 450-655 readings were corrected for cell number by dividing with the OD595 reading in each well.

U937 cells [2] = assay: LPS-induced TNF alpha release in U937 cells; assay type: cell-based; conditions: Homo sapiens; read-out: DU937 (LPS) TNFα REC50
Description: as §1

p38 MAPK alpha (MAPK14) = target: T1, p38 MAPK alpha (MAPK14) (Homo sapiens, UniProt Q16539); assay: Enzyme inhibition assay, p38 MAPK alpha (FRET, Z-LYTE, via MAPKAP-K2); assay type: biochemical; conditions: Table 2; read-out: Enzyme p38α IC50
T1 construct: purchased Invitrogen
T1 sequence (Q16539 whole entry): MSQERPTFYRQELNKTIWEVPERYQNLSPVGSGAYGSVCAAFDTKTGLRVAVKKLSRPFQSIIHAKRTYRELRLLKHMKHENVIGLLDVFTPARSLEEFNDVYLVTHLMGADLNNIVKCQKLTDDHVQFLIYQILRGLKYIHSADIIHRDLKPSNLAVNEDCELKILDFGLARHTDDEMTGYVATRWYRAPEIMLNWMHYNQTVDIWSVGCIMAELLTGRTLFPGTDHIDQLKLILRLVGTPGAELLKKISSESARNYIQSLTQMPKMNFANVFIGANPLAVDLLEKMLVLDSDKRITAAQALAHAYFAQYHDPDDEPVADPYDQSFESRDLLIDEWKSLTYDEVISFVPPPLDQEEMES

[3] = tested on: Differentiated U937 cells; assay: MTT assay (cell viability); assay type: cell-based, human; conditions: Table 2
Description: MTT Assay Differentiated U937 cells were pre-incubated with compound for 4 hrs in 5% FCS or 10% FCS for 24 hrs. […] After 1 hr incubation, the media were removed, 200 ul of DMSO added to each well and the plates were shaken lightly for 1 h prior to reading the absorbance at 550 nm. The percentage loss of cell viability was calculated for each well relative to vehicle (0.5% DMSO)-treatment. Consequently an apparent increase in cell viability for drug treatment relative to vehicle is tabulated as a negative percentage.

THP-1 cells = assay: LPS-induced TNF alpha release in THP-1 cells; assay type: cell-based; conditions: Homo sapiens, THP-1; Table 2; read-out: THP-1 (LPS) TNFα IC50
Description: LPS-Induced TNF Alpha Release in THP-1 Cells: Potency […] Coli; O111:B4, Sigma) for 4 hr and the supernatant collected for determination of TNFα concentration by sandwich ELISA (Duo-set, R&D systems). The inhibition of TNFα production was calculated at each concentration by comparison with vehicle control.

[4] = loss of cell viability at 1 μg/ml
[5] = loss of cell viability, test conducted at 10 μg/ml

IC50 (U937 cells [1]) | EC50 (U937 cells [2]) | IC50 (p38 MAPK alpha (MAPK14)) | IC50 (THP-1 cells) | Structure (SMILES) | IC50 (BEAS2B cells) | DU937 (cell viability) MTT assay 4 h [3, 4] | DU937 (cell viability) MTT assay 24 h [3, 4] | DU937 (cell viability) MTT assay 4 h [3, 5] | DU937 (cell viability) MTT assay 24 h [3, 5]
< 5000 nM | < 10 nM | < 10 nM | < 10 nM | COCC(=O)Nc1cc(Oc2ccc(NC(=O)Nc3cc(C(C)C)nn3-c3ccc(C)cc3)c3ccccc23)ccn1 [Example 6, N-(4-(4-(3-(3-Isopropyl-1-p-tolyl-1H-pyrazol-5-yl)ureido)naphthalen-1-yloxy)pyridin-2-yl)-2-methoxyacetamide] | < 5000 nM | − (<=30%) | − (<=30%) | – | –
< 10 nM | < 10 nM | < 10 nM | < 10 nM | CCc1cc(NC(=O)Nc2ccc(Oc3ccnc(NC(=O)COC)c3)c3ccccc23)n(-c2ccc(C)cc2)n1 [Example 7, N-(4-(4-(3-(3-Ethyl-1-p-tolyl-1H-pyrazol-5-yl)ureido)naphthalen-1-yloxy)pyridin-2-yl)-2-methoxyacetamide] | < 5000 nM | − (<=30%) | − (<=30%) | – | –
< 10 nM | < 10 nM | < 10 nM | < 10 nM | COCC(=O)Nc1cc(Oc2ccc(NC(=O)Nc3cc(C(C)(C)CO)nn3-c3ccc(C)cc3)c3ccccc23)ccn1 [Example 9, N-(4-(4-(3-(3-(1-Hydroxy-2-methylpropan-2-yl)-1-p-tolyl-1H-pyrazol-5-yl)ureido)naphthalen-1-yloxy)pyridin-2-yl)-2-methoxyacetamide] | < 5000 nM | − (<=30%) | − (<=30%) | – | –
< 10 nM | < 10 nM | < 10 nM | < 10 nM | Cc1ccc(-n2nc(C(C)(C)C)cc2NC(=O)Nc2ccc(Oc3ccnc(NC(=O)CN4CCOCC4)c3)c3ccccc23)cc1 [Example 11, N-(4-(4-(3-(3-tert-Butyl-1-p-tolyl-1H-pyrazol-5-yl)ureido)naphthalen-1-yloxy)pyridin-2-yl)-2-morpholinoacetamide] | < 5000 nM | – | – | −^$ (<=30%) | +^$ (>30%)
< 10 nM | < 10 nM | < 10 nM | < 10 nM | Cc1ccc(-n2nc(C(C)(C)C)cc2NC(=O)Nc2ccc(Oc3ccnc(NC(=O)CN(C)C)c3)c3ccccc23)cc1 [Example 12, N-(4-(4-(3-(3-tert-Butyl-1-p-tolyl-1H-pyrazol-5-yl)ureido)naphthalen-1-yloxy)pyridin-2-yl)-(dimethylamino)acetamide] | < 5000 nM | – | – | −^$ (<=30%) | +^$ (>30%)
< 10 nM | < 10 nM | < 10 nM | < 10 nM | COCCNCC(=O)Nc1cc(Oc2ccc(NC(=O)Nc3cc(C(C)(C)C)nn3-c3ccc(C)cc3)c3ccccc23)ccn1 [Example 13, N-(4-(4-(3-(3-tert-Butyl-1-p-tolyl-1H-pyrazol-5-yl)ureido)naphthalen-1-yloxy)pyridin-2-yl)-2-(2-methoxyethylamino)acetamide] | < 10 nM | – | – | −^$ (<=30%) | +^$ (>30%)
< 5000 nM | < 5000 nM | < 10 nM | < 5000 nM | Cc1ccc(-n2nc(C(C)(C)C)cc2NC(=O)Nc2ccc(Oc3ccnc(NC(=O)CNC(N)=O)c3)c3ccccc23)cc1 [Example 14, N-(4-(4-(3-(3-tert-Butyl-1-p-tolyl-1H-pyrazol-5-yl)ureido)naphthalen-1-yloxy)pyridin-2-yl)-2-ureidoacetamide] | < 5000 nM | − (<=30%) | − (<=30%) | – | –
